Test [1] deals with primary rat alveolar macrophages. Nature of the test: LPS-induced NO production by rat alveolar macrophages. In kind it is cell-based. The settings on record: LPS 10 ng/ml, 24 h, liposomes; LPS without phospholipid = 100%. As for the experimental part: FIG. 1. Anionic phospholipids inhibit inflammatory mediator production induced by LPS. Liposomes composed of sphingomyelin (SM), phosphatidylethanolamine (PE) dipalmitoyl-phosphatidylcholine ((DPPC), phosphatidylserine (PS), palmitoyl-oleoyl-phosphatidylglycerol (POPG) and phosphatidylinositol (PI) were formed by bath-sonication for 30 min at room temperature. LPS (10 ng/ml) and different concentrations of phospholipids were added to monolayer cultures of differentiated U937 cells (A), or primary rat alveolar macrophages (B). At 6 h after stimulation, media were collected and secreted TNF-α levels were determined in U937 cultures. NO production was determined 24 h after stimulating rat alveolar macrophages. LPS stimulation in the absence of phospholipid was set as 100%. […] The average TNF-α production upon LPS stimulation was (8.0±0.54 ng/ml). The average NO production upon LPS stimulation was 12.17±0.27 μM.
FIG. 2. The inhibitory effect of phosphatidylglycerols on LPS-induced inflammatory mediator production is molecular species specific. PG liposomes were formed by bath-sonication for 30 min at room temperature. LPS (10 ng/ml) and different concentrations of PG were added to monolayer cultures of differentiated U937 cells (A) or rat alveolar macrophages (B). Media TNF-α measurements were performed 6 h after stimulation. Media NO measurements were performed 24 h after stimulation. LPS stimulation without PG was set at 100%. The molecular species of PG shown on the graph are 8:0; dioctanoyl-phosphatidylglycerol, 12:0; dilauroyl-phosphatidylglycerol (DLPG), 14:0; dimyristoyl-phosphatidylglycerol (DMPG), 16:0; dipalmitoyl-phosphatidylglycerol (DPPG), 18:0; distearoyl-phosphatidylglycerol, 16:0/18:1; palmitoyl-oleoyl-phosphatidylglycerol (POPG). […] The average TNF-α production upon LPS stimulation was 11.3±0.7 ng/ml. The average NO production upon LPS stimulation was 10.1±0.6 μM.
Rat alveolar macrophages were isolated from bronchoalveolar lavage fluid (BALF) of Sprague-Dawley rats. The lungs were lavaged with pyrogen-free saline, and alveolar macrophages were sedimented by centrifugation at 150×g×5 min. Isolated macrophages were plated at 5×10^5 cells/well in 24-well plates (Falcon) in RPMI 1640 medium containing 10% BGS. The cells were allowed to adhere for 2 h and then used for the experiments after washing with phosphate-buffered-saline (PBS) to remove the unattached cells.
Nitric oxide (NO) accumulation in the supernatant was determined as previously reported (28). Briefly, rat alveolar macrophages were stimulated with LPS (10 ng/ml) or LPS plus phospholipids for 24 h. Culture supernatants (usually […]) were combined with an equal volume of Greiss reagent, and the samples were incubated at room temperature for 10 min before the absorbance was quantified at 550 nm. With the use of a standard curve, the nmol of NO produced were determined and normalized to total cell number in each sample.

Test [2] has as its system MAPK, IkBα and MKP-1 in differentiated U937 cells. The test can be described thus: Western blot of LPS induced MAPK and IkBα phosphorylation and MKP-1 expression. It is filed as cell-based, human. The settings on record: LPS 10 ng/ml; for LPS-induced MKP-1 expression / LPS-induced phosphorylation of p38, ERK, JNK and IkBα: liposomes 200 μg/ml; for LPS-induced phosphorylation of p38, ERK, JNK and IkBα: 15-60 min. As for the experimental part:
FIG. 4. POPG inhibits LPS induced MAPK and IkBα phosphorylation and MKP-1 expression. POPG liposomes (200 μg/ml) were added to monolayer cultures of differentiated U937 cells that received either no treatment or 10 ng/ml LPS. After incubating for the indicated time, cells were lysed using lysis buffer containing detergent, protease inhibitors and phosphatase inhibitors. Aliquots with 15 μg of protein from lysates were separated by SDS-PAGE and transferred onto nitrocellulose membranes. The amount of phosphorylation was detected using phospho-specific antibodies to p38MAPK, p42/p44 ERK, p46-p54 INK and phosphorylated IkBα. To determine equal loading of proteins between samples, the membranes were probed with rabbit polyclonal p46 INK, p42/p44 ERK, p38MAPK and IkBα antibodies. The expression of MKP-1 was detected with a polyclonal MKP-1 antibody.
FIG. 5. Quantification of POPG inhibition of LPS induced signaling. Western blot analysis as described in FIG. 4 was performed three or four times on separate samples and the intensity of phospho-p38, phospho-IkBα, phosphoERK, phospho JNK, phospho IkBα, total IkBα and MKP-1 was calculated using NIH Image J1.34 software.
FIG. 6. Molecular specificity in POPG action. Liposomes composed of POPC, DPPG or POPG were added to monolayer cultures of differentiated U937 cells that received either no treatment or 10 ng/ml LPS, as indicated. After 30 or 60 min cells were lysed and 15 μg of cellular protein from cultures was separated by SDS-PAGE and transferred onto nitrocellulose membranes. Phosphorylated and nonphosphorylated proteins were detected as described in FIG. 4.
FIG. 7. Comparative quantification of lipid dependent antagonism of LPS signaling. Western blot analysis was performed as described in FIG. 6 in three independent experiments. The intensity of the phosphorylated (p38, ERK, JNK and IkBα) and nonphosphorylated (total IkBα and MKP-1) proteins of interest was measured using NIH Image 0.1.34 software. Significance—*p<0.05, ** p<0.01.
Monolayers of unstimulated or stimulated macrophages were lysed on ice with 250 μl of ice-cold lysis buffer [50 mM Tris.HCl, pH 8.0, containing 137 mM NaCl, 10% (vol/vol) glycerol, 1% (vol/vol) Nonidet P-40, 1 mM NaF, 10 μg/ml leupeptin, 10 μg/ml aprotinin, 2 mM Na3VO4, and 1 mM phenylmethylsulfonyl fluoride (29). Insoluble nuclear material was pelleted by centrifugation at 14,000×g for 10 min at 4° C. and the supernatants were collected. 15 μg of protein from lysates was separated by SDS-PAGE and transferred onto nitrocellulose membranes (30). The blots were then washed in Tris-Tween-buffered saline [TTBS, 20 mM Tris-HCl buffer, pH 7.6, containing 137 mM NaCl and 0.05% (vol/vol) Tween 20], blocked with 5% (wt/vol) nonfat dry milk for 1 hour, and probed according to the method described by Towbin et. al. (30) with phospho-specific antibodies to p46-p54 JNK, p42/p44 ERK, and p38MAPK, or IkBα or with a polyclonal MKP-1 or IkBα antibodies in 5% (wt/vol) BSA dissolved in TTBS. With the use of horseradish peroxidase-conjugated secondary anti-rabbit or anti-mouse antibody, bound antibodies were detected by enhanced chemiluminescence (ECL plus, Amersham Biosciences, Piscataway, N.J.). To determine loading of proteins between samples, the membranes were probed with rabbit polyclonal p46 JNK, p42/p44 ERK, and p38MAPK antibodies.

The values that follow come from patent US10532066B2, “Surfactant lipids, compositions thereof, and uses thereof” (National Jewish Health, priority 2007, dated 2020).

Entries after “also recorded” stand apart in the source; their conditions may differ.

phosphatidylinositol [PI]: the “LPS-induced NO production” value in test [1] is on record as “significantly attenuated”. In test [2], the “LPS-induced MKP-1 expression” value was “reduced”; the “LPS-induced phosphorylation of p38, ERK, JNK and IkBα” value (from here on “LPS-induced phosphorylation of p38”) is “reduced”.
Regarding `CCCCCCCC/C=C\CCCCCCCC(=O)O[C@H](COC(=O)CCCCCCCCCCCCCCC)COP(=O)(O)OCC(O)CO` (stereo partly drawn) [POPG, palmitoyl-oleoyl-phosphatidylglycerol], the “LPS-induced NO production” value in test [1] was “significantly attenuated”. Further, the “LPS-induced reduction (degradation) of steady state IkBα” value in test [2] (POPG 200 μg/ml) is “abrogated the reduction; also recorded: remained constant”. Besides, in test [2], the “LPS-induced MKP-1 expression” value was “blocked the synthesis; also recorded: reduced to control levels; also recorded: potently inhibited”; the “LPS-induced phosphorylation of p38” value is recorded as “reduced; also recorded: eliminated the phosphorylation; also recorded: significantly reduces; also recorded: potently inhibited”.
Regarding `CCCCCCCCCCCCCC(=O)OCC(COP(=O)(O)OCC(O)CO)OC(=O)CCCCCCCCCCCCC` (stereo not drawn) [DMPG, dimyristoyl-phosphatidylglycerol], the “LPS-induced NO production” value in test [1] is “as potent as POPG”.
For the molecule `CCCCCCCCCCCCCCCC(=O)OCC(COP(=O)(O)OCC(O)CO)OC(=O)CCCCCCCCCCCCCCC` (stereo not drawn) [DPPG, dipalmitoyl-phosphatidylglycerol, reference compound], the “LPS-induced NO production” value in test [1] is reported as “failed to antagonize”. In test [2], the “LPS-induced MKP-1 expression” value is listed as “neither POPC nor DPPG exerted a significant effect”; the “LPS-induced phosphorylation of p38” value is listed as “neither POPC nor DPPG exerted a significant effect”.
Consider `CCCCCCCCCCCCCCCC(=O)OC[C@H](COP(=O)([O-])OCC[N+](C)(C)C)OC(=O)CCCCCCCCCCCCCCC` [DPPC, dipalmitoyl-phosphatidylcholine, reference compound], for which the “LPS-induced NO production” value in test [1] is “no significant effect”.
